Test results: patent US20180064153A1, “Methods of Protecting Against Brain Injury” (priority 2016, published 2018)
Read-outs that look alike come from different tables or passages of the source.

What was measured:
[1] = individuals taking β-alanine as a free amino acid; cited from earlier work
carnosine = conditions: for Brain Carnosine Concentration: mean ± SD
[2] = test system: brain-derived neurotrophic factor (BDNF); conditions: day 16 post-blast
[3] = test system: rats exposed to a low-pressure blast wave; conditions: 1 h following blast
Protocol: Neurological assessment using the neurological severity score (NSS) was performed one hour following the blast and daily thereafter. […] The NSS was performed 1-h following the initial blast wave exposure. NSS assesses somatomotor and somatosensory function by evaluating the animals' activities in motor, sensory, reflexes, beam walking, and beam balancing tasks. Specifically, the following were assessed: ability to exit from a circle (3-point scale), gait on a wide surface (3-point scale), gait on a narrow surface (4-point scale), effort to remain on a narrow surface (2-point scale), reflexes (5-point scale), seeking behavior (2-point scale), beam walking (3-point scale), and beam balance (3- point scale). An observer, who was blind to the different treatment groups, tested the animals.

tau protein = conditions: day 16 post-blast; for Tau protein expression, CTL compared with BA: p<0.001
histidine = conditions: for Brain Histidine Concentration: mean ± SD
neuropeptide Y (NPY) = conditions: day 16 post-blast
[4] = test system: glial fibrillary acidic protein (GFAP); conditions: day 16 post-blast
[5] = test system: rats exposed to a low-pressure blast wave; conditions: 30 days supplementation

NCCC(=O)O [BA, beta-alanine]
duration of flushing/tingling (paraesthesia) of the skin [1]: less than 60 minutes | Brain Carnosine Concentration (carnosine; Amygdala): 23.2 ± 18.4 mM | Brain Carnosine Concentration (carnosine; Cortex): 364 ± 178 mM | Brain Carnosine Concentration (carnosine; Hippocampus): 22.4 ± 11.3 mM | Brain Carnosine Concentration (carnosine; Hypothalamus): 22.7 ± 26.2 mM | Brain Carnosine Concentration (carnosine; Thalamus): 50.9 ± 33.9 mM | carnosine content, BA compared to PL (carnosine; amygdala, p=0.061): Trends towards a difference | carnosine content higher than in animals that consumed the vehicle (carnosine; average across the five brain regions): 79% | carnosine content, BA compared to PL (carnosine; cerebral cortex, p=0.048): significantly higher | carnosine content, BA compared to PL (carnosine; hippocampus, p=0.058): Trends towards a difference | BDNF expression, BA compared with PL ([2]; CA1 subregion, p=0.009): significantly higher | BDNF expression, CTL compared with BA ([2]; CA1 subregion, p=0.025): significantly higher | BDNF expression, CTL compared with BA ([2]; CA3 subregion, p=0.005): significantly greater | BDNF expression, BA compared with PL ([2]; CA3 subregion, p=0.110): No difference | BDNF expression, CTL compared with BA ([2]; DG subregion, p=0.005): significantly greater | BDNF expression, BA compared with PL ([2]; DG subregion, p=0.136): no differences | NSS: reflex responses, motor coordination, motor strength, sensory function, BA vs PL [3]: No significant differences | Tau protein expression, CTL compared with BA (tau protein; CA1 subregion): significantly lower | Tau protein expression, BA compared with PL (tau protein; CA1 subregion, p=0.700): No significant differences | Tau protein expression, CTL compared with BA (tau protein; CA3 subregion): significantly lower | Tau protein expression, BA compared with PL (tau protein; CA3 subregion, p=1.000): no differences | Tau protein expression, CTL compared with BA (tau protein; DG subregion): significantly lower | Tau protein expression, BA compared with PL (tau protein; DG subregion, p=0.557): no differences observed | Brain Histidine Concentration (histidine; Amygdala): 2619 ± 1467 mM | Brain Histidine Concentration (histidine; Cortex): 5669 ± 4471 mM | Brain Histidine Concentration (histidine; Hippocampus): 5632 ± 4995 mM | Brain Histidine Concentration (histidine; Hypothalamus): 1862 ± 1794 mM | Brain Histidine Concentration (histidine; Thalamus): 26025 ± 21754 mM | histidine content higher than PL (histidine; across the five regions of the brain): 86% | histidine content, BA compared to PL (histidine; cerebral cortex, p=0.070): Trends towards a higher histidine content | histidine content, BA compared to PL (histidine; hippocampus, p=0.053): Trends towards a higher histidine content | histidine content, BA compared to PL (histidine; thalamus, p=0.108): Trends towards a higher histidine content | NPY expression, CTL compared with BA (neuropeptide Y (NPY); CA1 subregion, p=0.011): significantly higher | NPY expression, BA compared with PL (neuropeptide Y (NPY); CA1 subregion, p=0.196): No significant differences | NPY expression, CTL compared with BA (neuropeptide Y (NPY); CA3 subregion, p=0.032): significantly greater | NPY expression, BA compared with PL (neuropeptide Y (NPY); CA3 subregion, p=0.480): no differences | NPY expression, CTL compared with BA (neuropeptide Y (NPY); DG subregion, p=0.011): significantly greater | NPY expression, BA compared with PL (neuropeptide Y (NPY); DG subregion, p=0.074): trended (p=0.074) towards a higher response | GFAP expression, PL compared with BA ([4]; CA1 subregion, p=0.001): significantly greater | GFAP expression, CTL compared with BA ([4]; CA1 subregion, p=0.126): No differences | GFAP expression, PL compared with BA ([4]; CA3 subregion, p=0.021): significantly greater | GFAP expression, BA compared with CTL ([4]; CA3 subregion, p=0.876): no differences | GFAP expression, comparison between BA, PL and CTL ([4]; DG subregion, ANOVA p=0.387): no difference | prevalence of animals demonstrating the comorbid pattern of mTBI+PTSD ([5]; 2/49): 4% | prevalence of PTSD ([5]; 5/49): 10.2% | prevalence of animals demonstrating mTBI ([5]; 13/49): 26.5%
